Data as given in ChEMBL document CHEMBL1140250, “6-Aryl-4-methylsulfanyl-2H-pyran-2-one-3-carbonitriles as PPAR-gamma activators” (Bioorg Med Chem Lett, 2005).

What was measured:
Type in all cases: functional
[1] = target: T1, Peroxisome proliferator-activated receptor gamma (Homo sapiens) (UniProt P37231); experiment: In vitro agonist activity against human PPAR-gamma in transactivation assay at 100 nM
T1 sequence (whole entry): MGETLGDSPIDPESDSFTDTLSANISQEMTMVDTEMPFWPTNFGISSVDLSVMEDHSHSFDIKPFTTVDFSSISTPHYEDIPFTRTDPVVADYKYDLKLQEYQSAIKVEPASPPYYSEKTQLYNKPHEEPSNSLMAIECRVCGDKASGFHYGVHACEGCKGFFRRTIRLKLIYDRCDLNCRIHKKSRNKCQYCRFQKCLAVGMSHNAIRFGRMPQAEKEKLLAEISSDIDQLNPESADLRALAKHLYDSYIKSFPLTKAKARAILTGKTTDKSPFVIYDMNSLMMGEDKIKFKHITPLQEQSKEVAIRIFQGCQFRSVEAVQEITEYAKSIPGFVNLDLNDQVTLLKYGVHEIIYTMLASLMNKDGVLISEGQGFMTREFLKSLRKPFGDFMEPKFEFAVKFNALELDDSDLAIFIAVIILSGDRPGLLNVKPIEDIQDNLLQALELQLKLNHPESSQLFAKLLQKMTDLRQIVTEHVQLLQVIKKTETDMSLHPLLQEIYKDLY

[2] = target: T1, Peroxisome proliferator-activated receptor gamma (Homo sapiens); experiment: In vitro agonist activity against human PPAR-gamma receptor in transactivation assay at 1000 nM
[3] = target: T1, Peroxisome proliferator-activated receptor gamma (Homo sapiens); experiment: In vitro agonist activity against human PPAR-gamma in transactivation assay at 10 nM

| Fold activation [1] | Fold activation [2] | Fold activation [3] | Compound |
| --- | --- | --- | --- |
| 11 | 30 | 7 | CCSCCOc1ccc(-c2cc(SCC)c(C#N)c(=O)o2)cc1 |
| 5 | 14 | 3 | CSc1cc(-c2ccc(OCCSc3ccccc3)cc2)oc(=O)c1C#N |
| 28 | 176 | 9 | CN(CCOc1ccc(CC2SC(=O)NC2=O)cc1)c1ccccn1 (centres undefined) |
| 4 | 7 | 5 | CSc1cc(-c2ccc(OCCN(C)Cc3ccccc3)cc2)oc(=O)c1C#N |

The remaining lines, values behind:

| Compound | Fold activation [1] | Fold activation [2] | Fold activation [3] |
| --- | --- | --- | --- |
| CSCCOc1ccc(-c2cc(SC)c(C#N)c(=O)o2)cc1 | 22 | 60 | 12 |
| COC(=O)c1c(SC)cc(-c2ccc(OCCN3CCCCC3)cc2)oc1=O | 3 | 17 | 3 |
| CSc1cc(-c2ccc(OCN3CCOCC3)cc2)oc(=O)c1C#N | 4 | 5 | 3 |
| CSc1cc(-c2ccc(OCCN(C)C)cc2)oc(=O)c1C#N | 6 | 7 | 4 |
| CSc1cc(-c2ccc(OCCN3CCCCC3)cc2)oc(=O)c1C#N | 2 | 16 | 3 |
| C[S+]([O-])CCOc1ccc(-c2cc([S+](C)[O-])c(C#N)c(=O)o2)cc1 (centres undefined) | 14 | 27 | 9 |
| CSc1cc(-c2ccc(OCCc3nccc4c3CCCC4)cc2)oc(=O)c1C#N | 5 | 19 | 4 |
| COC(=O)c1c(SC)cc(-c2ccc(OCCSC)cc2)oc1=O | 13 | 44 | 9 |
| CSc1cc(-c2ccc(OCCN(Cc3ccccc3)SC)cc2)oc(=O)c1C#N | 6 | 7 | 4 |
